Data on 16 molecules can be found in patent US20140113898A1, “BISARYLSULFONE AND DIALKYLARYLSULFONE COMPOUNDS AS CALCIUM CHANNEL BLOCKERS” (Zalicus Pharmaceuticals Ltd., priority 2010, published 2014).

SMILES strings stand for the structures.

Common to all, as to type: cell-based
The target in test [1] is T1, CaV2.2 (Homo sapiens, UniProt Q00975).
T1 construct: expressed in transfected cells; host or cells: unnamed doxycycline-inducible cell line
The experiment in a line: High-throughput CaV2.2/Kir2.3 FLIPR fluorescent assay. Particulars: Table 4; Fluo-4 FLIPR; closed or inactivated state not stated; read-out: FLIPR data CaV2.2. The gist of the method:
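IC50 was derived by logistic fitting of the FLIPR Fluo-4 signal recorded over 3 min after a 130 mM KCl stimulus. Before stimulation, cells (channel expression induced with doxycycline, 29 °C on assay day) were kept in pH 7.4 buffer with 2 mM KCl for the closed-state format or 12.5 mM KCl for the inactivated-state format.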

The target in test [2] is T2, CaV3.1 (Homo sapiens, UniProt O43497).
T2 construct: expressed in transfected cells; host or cells: unnamed doxycycline-inducible cell line
Description: High-throughput CaV3.1 T-type FLIPR fluorescent assay. Particulars: Table 4; Fluo-4 FLIPR. The protocol:
Cells were plated in 384-well, clear-bottom, black-walled, poly-D-lysine coated plates (Becton Dickinson, Franklin Lake, N.J.) 2 days prior to use in the FLIPR assay. 100 μL of cells (2.0×10^6 cell/mL) containing doxycyline (Sigma-Aldrich, 1.5 μg/mL; to induce channel expression) were added to each well using a Multidrop (Thermo Scientific, Waltham, Mass.) and were maintained in 5% CO2 incubator at 37° C. On the morning of the assay, cells were transferred to a 5% CO2 incubator at 29° C.
Cells were washed with a wash buffer containing (in mM): 118 NaCl, 18.4 HEPES, 11.7 D-glucose, 0.05 CaCl2, 0.5 MgSO4, 1 KCl, and 1.2 KH2PO4, with the pH adjusted to 7.2 with NaOH. 4.4 μM of the fluorescent indicator dye, Fluo-4 (Invitrogen), prepared in pluronic acid
(Sigma-Aldrich), was loaded into the wells and incubated for 45 minutes at 29° C. in 5% CO2. Cells were then rinsed with the following low Ca^2+ buffer (in mM): 0.34 Na2HPO4, 4.2 NaHCO3, 0.44 KH2PO4, 0.41 MgSO4, 0.49 MgCl2-6H2O, 20 HEPES, 5.5 D-Glucose, 137 NaCl, 5.3 KCl, and 0.001 CaCl2, with 0.1% BSA and the pH adjusted to 7.2 with NaOH. Concentration-dependent response curves were generated from 5 mM stock solutions prepared in DMSO (Sigma-Aldrich) and diluted in the buffer containing low Ca^2+ and incubated for 20 minutes at 29° C. in 5% CO2. Calcium entry was evoked with an addition of (in mM): 0.34 Na2HPO4, 4.2 NaHCO3, 0.44 KH2PO4, 0.41 MgSO4, 0.49 MgCl2-6H2O, 20 HEPES, 5.5 D-Glucose, 137 NaCl, 5.3 KCl, and 6 CaCl2, with 0.1% BSA and the pH adjusted to 7.2 with NaOH. A change in the Fluo-4 fluorescence signal was assessed using FLIPR^TETRA™ instrument (Molecular Devices, Sunnyvale, Calif.) for 3 minutes following the elevation of extracellular KCl using an illumination wavelength of 470-495 nm with emissions recorded at 515-575 nm.
(§1) Concentration-dependent response curves were obtained by comparing the fluorescence signal in the presence of compound and fitted with a logistic function (1) to obtain the concentration that inhibited 50% (IC50) of the RLU signal using OriginPro v.7.5 software (OriginLab, Northampton, Mass.).
(§2) To assess the quality of the FLIPR assays the Z-factor (2) was used to quantify the suitability of the assay conditions using the following equation: […]
(§3) Data are expressed as mean and standard deviation (SD).

In test [3] the target is T3, CaV3.2 (Homo sapiens, UniProt O95180).
T3 construct: expressed in transfected cells; host or cells: unnamed doxycycline-inducible cell line
The experiment in a line: High-throughput CaV3.2/Kir2.3 T-type FLIPR fluorescent assay. Particulars: Table 4; Fluo-4 FLIPR; closed or inactivated state not stated. The procedure: Cells were plated in 384-well, clear-bottom, black-walled, poly-D-lysine coated plates (Becton Dickinson, Franklin Lake, N.J.) 2 days prior to use in the FLIPR assay. 100 µL of cells (1.2×10^6 cell/mL) containing doxycyline (Sigma-Aldrich, 1.5 μg/mL; to induce channel expression) were added to each well using a Multidrop (Thermo Scientific, Waltham, Mass.) and were maintained in 5% CO2 incubator at 37° C. On the morning of the assay, cells were transferred to a 5% CO2 incubator at 29° C.
Cells were washed with a wash buffer containing (in mM): 118 NaCl, 18.4 HEPES, 11.7 D-glucose, 2 CaCl2, 0.5 MgSO4, 4.7 KCl, and 1.2 KH2PO4, with the pH adjusted to 7.2 with
NaOH. 4.4 μM of the fluorescent indicator dye Fluo-4 (Invitrogen) prepared in pluronic acid (Sigma-Aldrich) was loaded into the wells and incubated for 45 minutes at 29° C. in 5% CO2. Cells were then rinsed with either a 2 mM KCl closed-state buffer (in mM: 138.5 NaCl, 10 HEPES, 10 D-glucose, 1 CaCl2, and 2 KCl, with the pH adjusted to 7.4 with NaOH) when performing the closed-state assay or 7.6 mM KCl inactivated-state buffer (in mM: 130.9 NaCl, 10 HEPES, 10 D-glucose, 1 CaCl2, and 7.6 mM KCl, with the pH adjusted to 7.4 with NaOH) when performing the inactivated-state assay. Concentration-dependent response curves were generated from 5 mM stock solutions prepared in DMSO (Sigma-Aldrich), diluted in either the 2 mM KCl buffer or 7.6 mM KCl buffer, and incubated for 20 minutes at 29° C. in 5% CO2. Calcium entry was evoked with an addition of either 12 mM KCl stimulation buffer (in mM: 128.5 NaCl, 10 HEPES, 10 D-glucose, 1 CaCl2, and 12 KCl, with the pH adjusted to 7.4 with NaOH) or 14.5 mM KCl stimulation buffer (in mM: 126 NaCl, 10 HEPES, 10 D-glucose, 1 CaCl2, and 14.5 KCl, with the pH adjusted to 7.4 with NaOH) for the closed-state or inactivated-state assay respectively. A change in the Fluo-4 fluorescence signal was assessed using FLIPR^TETRA™ instrument (Molecular Devices, Sunnyvale, Calif.) for 3 minutes following the elevation of extracellular KCl using an illumination wavelength of 470-495 nm with emissions recorded at 515-575 nm.
as §1, §2, §3

T1 sequence (Q00975 whole entry): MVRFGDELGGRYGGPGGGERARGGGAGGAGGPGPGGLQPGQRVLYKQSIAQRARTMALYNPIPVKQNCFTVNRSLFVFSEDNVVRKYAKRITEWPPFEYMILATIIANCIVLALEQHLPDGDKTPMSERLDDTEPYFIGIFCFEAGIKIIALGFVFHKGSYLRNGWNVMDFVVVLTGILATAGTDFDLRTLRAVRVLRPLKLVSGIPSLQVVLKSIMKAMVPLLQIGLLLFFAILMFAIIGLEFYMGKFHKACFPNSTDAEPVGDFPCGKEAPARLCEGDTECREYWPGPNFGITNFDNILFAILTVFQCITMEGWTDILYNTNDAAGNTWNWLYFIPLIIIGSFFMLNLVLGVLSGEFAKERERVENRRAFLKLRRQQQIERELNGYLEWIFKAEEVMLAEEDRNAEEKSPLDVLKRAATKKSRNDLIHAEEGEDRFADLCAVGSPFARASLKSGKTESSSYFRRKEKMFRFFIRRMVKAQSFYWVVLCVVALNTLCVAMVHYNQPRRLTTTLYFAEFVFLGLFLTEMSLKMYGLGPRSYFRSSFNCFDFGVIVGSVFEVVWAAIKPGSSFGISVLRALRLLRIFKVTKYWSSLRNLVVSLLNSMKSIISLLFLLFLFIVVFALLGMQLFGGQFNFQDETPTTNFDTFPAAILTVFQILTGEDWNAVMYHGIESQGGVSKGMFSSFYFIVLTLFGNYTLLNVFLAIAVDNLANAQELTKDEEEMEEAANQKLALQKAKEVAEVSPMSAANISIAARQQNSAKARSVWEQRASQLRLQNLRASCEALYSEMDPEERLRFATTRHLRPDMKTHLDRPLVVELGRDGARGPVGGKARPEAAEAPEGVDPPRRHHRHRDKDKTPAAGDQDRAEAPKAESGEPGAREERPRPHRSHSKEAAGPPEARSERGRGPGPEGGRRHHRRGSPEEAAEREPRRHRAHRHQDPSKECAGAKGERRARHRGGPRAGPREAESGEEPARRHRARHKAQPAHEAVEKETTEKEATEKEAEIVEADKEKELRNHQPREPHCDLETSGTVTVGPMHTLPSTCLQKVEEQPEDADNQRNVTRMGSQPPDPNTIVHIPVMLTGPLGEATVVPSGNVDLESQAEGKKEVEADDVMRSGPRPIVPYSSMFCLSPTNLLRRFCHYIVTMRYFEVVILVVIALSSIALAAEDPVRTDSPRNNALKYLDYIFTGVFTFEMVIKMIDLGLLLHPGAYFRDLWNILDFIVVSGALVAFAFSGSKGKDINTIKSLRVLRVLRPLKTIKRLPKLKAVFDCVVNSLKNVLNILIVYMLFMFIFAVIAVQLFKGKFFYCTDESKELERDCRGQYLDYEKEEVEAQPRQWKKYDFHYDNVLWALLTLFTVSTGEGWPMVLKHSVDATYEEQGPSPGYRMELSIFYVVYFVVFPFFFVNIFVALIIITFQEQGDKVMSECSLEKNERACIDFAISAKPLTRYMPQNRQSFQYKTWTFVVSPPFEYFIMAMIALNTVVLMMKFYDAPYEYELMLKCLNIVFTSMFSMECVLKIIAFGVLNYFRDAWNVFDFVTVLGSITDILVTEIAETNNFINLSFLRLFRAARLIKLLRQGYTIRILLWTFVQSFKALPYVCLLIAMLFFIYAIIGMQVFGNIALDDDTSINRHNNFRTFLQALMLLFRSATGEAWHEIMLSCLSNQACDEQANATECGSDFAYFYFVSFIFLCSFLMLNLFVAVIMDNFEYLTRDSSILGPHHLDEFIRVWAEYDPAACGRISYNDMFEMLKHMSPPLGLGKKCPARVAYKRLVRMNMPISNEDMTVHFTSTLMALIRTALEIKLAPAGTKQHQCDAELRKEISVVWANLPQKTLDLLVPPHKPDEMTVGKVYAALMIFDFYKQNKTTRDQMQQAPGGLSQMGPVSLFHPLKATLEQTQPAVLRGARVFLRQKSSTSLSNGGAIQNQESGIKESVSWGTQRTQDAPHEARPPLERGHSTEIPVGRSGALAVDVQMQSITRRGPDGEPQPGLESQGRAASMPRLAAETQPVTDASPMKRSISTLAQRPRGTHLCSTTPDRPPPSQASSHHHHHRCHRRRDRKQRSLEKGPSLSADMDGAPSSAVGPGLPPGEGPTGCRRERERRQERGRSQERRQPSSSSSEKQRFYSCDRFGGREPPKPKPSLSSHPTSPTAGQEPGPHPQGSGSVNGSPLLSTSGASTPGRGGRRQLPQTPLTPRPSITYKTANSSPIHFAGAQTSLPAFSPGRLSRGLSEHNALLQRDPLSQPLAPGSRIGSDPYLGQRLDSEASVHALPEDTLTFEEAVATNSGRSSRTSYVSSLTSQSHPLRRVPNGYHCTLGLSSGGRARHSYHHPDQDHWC
T1 sequence (P54284 whole entry partner): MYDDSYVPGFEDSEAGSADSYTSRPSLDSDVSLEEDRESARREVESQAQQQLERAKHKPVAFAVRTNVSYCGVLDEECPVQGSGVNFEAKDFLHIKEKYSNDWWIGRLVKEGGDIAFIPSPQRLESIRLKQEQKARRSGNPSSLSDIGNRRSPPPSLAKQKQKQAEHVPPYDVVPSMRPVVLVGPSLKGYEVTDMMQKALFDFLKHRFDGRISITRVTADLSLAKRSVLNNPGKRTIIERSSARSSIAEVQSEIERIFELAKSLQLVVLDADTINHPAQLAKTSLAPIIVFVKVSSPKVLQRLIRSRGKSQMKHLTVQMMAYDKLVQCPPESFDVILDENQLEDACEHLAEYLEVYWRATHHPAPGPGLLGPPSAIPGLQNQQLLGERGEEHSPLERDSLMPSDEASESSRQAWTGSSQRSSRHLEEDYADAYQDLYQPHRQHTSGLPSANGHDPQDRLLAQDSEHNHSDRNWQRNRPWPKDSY
T1 sequence (P54289 25-946 partner limits assumed): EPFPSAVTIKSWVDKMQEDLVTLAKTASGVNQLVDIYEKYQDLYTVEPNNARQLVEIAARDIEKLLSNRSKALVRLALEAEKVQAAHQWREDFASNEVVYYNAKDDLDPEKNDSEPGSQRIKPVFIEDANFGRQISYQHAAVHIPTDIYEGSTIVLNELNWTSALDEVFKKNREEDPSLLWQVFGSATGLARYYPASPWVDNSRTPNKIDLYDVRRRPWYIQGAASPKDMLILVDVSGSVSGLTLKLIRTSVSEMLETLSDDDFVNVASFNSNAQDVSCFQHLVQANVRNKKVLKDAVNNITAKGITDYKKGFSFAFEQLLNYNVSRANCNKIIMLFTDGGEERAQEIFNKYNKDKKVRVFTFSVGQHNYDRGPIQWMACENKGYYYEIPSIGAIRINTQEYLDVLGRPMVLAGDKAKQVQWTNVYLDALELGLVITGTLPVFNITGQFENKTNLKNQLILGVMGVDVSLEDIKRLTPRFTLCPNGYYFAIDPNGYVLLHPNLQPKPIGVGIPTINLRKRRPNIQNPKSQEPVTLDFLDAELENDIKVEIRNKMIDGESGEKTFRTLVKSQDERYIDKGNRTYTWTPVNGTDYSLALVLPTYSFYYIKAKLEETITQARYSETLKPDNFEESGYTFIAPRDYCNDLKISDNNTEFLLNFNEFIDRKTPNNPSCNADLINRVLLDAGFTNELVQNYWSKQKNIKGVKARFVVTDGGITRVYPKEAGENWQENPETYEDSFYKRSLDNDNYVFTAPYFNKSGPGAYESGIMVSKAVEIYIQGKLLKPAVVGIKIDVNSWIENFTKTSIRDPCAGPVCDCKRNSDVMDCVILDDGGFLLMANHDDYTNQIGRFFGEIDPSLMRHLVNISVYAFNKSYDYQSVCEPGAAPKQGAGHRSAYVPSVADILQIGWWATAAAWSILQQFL
T1 sequence (P54289 947-1103 partner limits assumed): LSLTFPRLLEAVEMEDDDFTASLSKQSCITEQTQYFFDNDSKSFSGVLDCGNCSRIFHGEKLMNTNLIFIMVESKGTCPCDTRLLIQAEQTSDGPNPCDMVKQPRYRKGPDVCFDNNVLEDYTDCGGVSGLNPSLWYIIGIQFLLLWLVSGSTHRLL

Consider `O=C(NCc1ccc(S(=O)(=O)c2cccc(C(F)(F)F)c2)cc1)c1ccnn1CC(F)(F)F` [Compound 12, 1-(2,2,2-trifluoroethyl)-N-(4-((3-(trifluoromethyl)phenyl)sulfonyl)benzyl)-1H-pyrazole-5-carboxamide], for which the IC50 in test [1] came out at 630 nM; in test [2], 2290 nM; in test [3], 590 nM.
For the molecule `O=C(NCc1ccc(S(=O)(=O)c2cccc(C(F)(F)F)c2)cc1)c1cn2cc(C(F)(F)F)ccc2n1` [Compound 13, 6-(trifluoromethyl)-N-(4-((3-(trifluoromethyl)phenyl)sulfonyl)benzyl)imidazo[1,2-a]pyridine-2-carboxamide], the IC50 in test [1] was 300 nM; in test [2], 2020 nM; in test [3] it was 740 nM.
Taken in the same sequence, the figures for `COc1cc(C(=O)NCc2ccc(S(=O)(=O)c3cccc(C(F)(F)F)c3)cc2)cc(Cl)n1` [Compound 14, 2-chloro-6-methoxy-N-(4-((3-(trifluoromethyl)phenyl)sulfonyl)benzyl)isonicotinamide] were 850 nM, 2380 nM and 430 nM.
As for `O=C(NCc1ccc(S(=O)(=O)c2cccc(C(F)(F)F)c2)cc1)c1ccc(Cl)c(OC(F)(F)F)c1` [Compound 15, 4-chloro-3-(trifluoromethoxy)-N-(4-((3-(trifluoromethyl)phenyl)sulfonyl)benzyl)benzamide], the IC50 stood at 740 nM in test [1], 1390 nM in test [2] and 490 nM in test [3].
Taken in the same sequence, the figures for `O=C(NCc1ccc(S(=O)(=O)c2cccc(C(F)(F)F)c2)cc1)c1ccnc(C(F)(F)F)c1` [Compound 16, 2-(trifluoromethyl)-N-(4-((3-(trifluoromethyl)phenyl)sulfonyl)benzyl)isonicotinamide] were 940 nM, 1430 nM and 640 nM.
The matching figures for `O=C(NCc1cccc(S(=O)(=O)c2cccc(C(F)(F)F)c2)c1)c1ccc(Cl)c(F)c1` [Compound 17, 4-chloro-3-fluoro-N-(3-((3-(trifluoromethyl)phenyl)sulfonyl)benzyl)benzamide]: 140 nM, 1630 nM and 940 nM.
Taken in the same sequence, the figures for `O=C(NCc1cccc(S(=O)(=O)c2cccc(C(F)(F)F)c2)c1)c1cc(F)cc(Cl)c1` [Compound 18, 3-chloro-5-fluoro-N-(3-((3-(trifluoromethyl)phenyl)sulfonyl)benzyl)benzamide] were 220 nM, 1570 nM and 840 nM.
With `O=C(NCc1cccc(S(=O)(=O)c2cccc(C(F)(F)F)c2)c1)c1ccc(C(F)(F)F)nc1` [Compound 19, 6-(trifluoromethyl)-N-(3-((3-(trifluoromethyl)phenyl)sulfonyl)benzyl)nicotinamide], the IC50 is 490 nM in test [1], 2100 nM in test [2] and 970 nM in test [3].
Taken in the same sequence, the figures for `O=C(NCc1cccc(S(=O)(=O)c2cccc(C(F)(F)F)c2)c1)c1ccc(C(F)(F)F)cn1` [Compound 20, 5-(trifluoromethyl)-N-(3-((3-(trifluoromethyl)phenyl)sulfonyl)benzyl)picolinamide] were 230 nM, 1810 nM and 930 nM.
For the molecule `CS(=O)(=O)c1nc(C(F)(F)F)ccc1C(=O)NCc1cccc(S(=O)(=O)c2cccc(C(F)(F)F)c2)c1` [Compound 21, 2-(methylsulfonyl)-6-(trifluoromethyl)-N-(3-((3-(trifluoromethyl)phenyl)sulfonyl)benzyl)nicotinamide], the IC50 is 760 nM in test [1], 9070 nM in test [2] and 2680 nM in test [3].
Consider `Cn1nc(C(F)(F)F)cc1C(=O)NCc1cccc(S(=O)(=O)c2cccc(C(F)(F)F)c2)c1` [Compound 22, 1-methyl-3-(trifluoromethyl)-N-(3-((3-(trifluoromethyl)phenyl)sulfonyl)benzyl)-1H-pyrazole-5-carboxamide], for which the figures for the IC50 in test [1], in test [2] and in test [3] were 220 nM, 3010 nM and 640 nM, respectively.
The matching figures for `CS(=O)(=O)c1cc(C(=O)NCc2cccc(S(=O)(=O)c3cccc(C(F)(F)F)c3)c2)cc(C(F)(F)F)n1` [Compound 23, 2-(methylsulfonyl)-6-(trifluoromethyl)-N-(3-((3-(trifluoromethyl)phenyl)sulfonyl)benzyl)isonicotinamide]: 490 nM, 2050 nM and 570 nM.
As for `CS(=O)(=O)c1cc(C(F)(F)F)cnc1C(=O)NCc1cccc(S(=O)(=O)c2cccc(C(F)(F)F)c2)c1` [Compound 24, 3-(methylsulfonyl)-5-(trifluoromethyl)-N-(3-((3-(trifluoromethyl)phenyl)sulfonyl)benzyl)picolinamide], the IC50 in test [1] amounted to 410 nM; in test [2] it was 3240 nM; in test [3], 550 nM.
Taken in the same sequence, the figures for `CC(C)S(=O)(=O)c1cc(C(F)(F)F)cnc1C(=O)NCc1cccc(S(=O)(=O)c2cccc(C(F)(F)F)c2)c1` [Compound 25, 3-(isopropylsulfonyl)-5-(trifluoromethyl)-N-(3-((3-(trifluoromethyl)phenyl)sulfonyl)benzyl)picolinamide] were 170 nM, 1580 nM and 1740 nM.
The matching figures for `O=C(NCc1cccc(S(=O)(=O)c2cccc(C(F)(F)F)c2)c1)c1cnc(C(F)(F)F)nc1` [Compound 26, 2-(trifluoromethyl)-N-(3-((3-(trifluoromethyl)phenyl)sulfonyl)benzyl)pyrimidine-5-carboxamide]: 580 nM, 1880 nM and 1180 nM.
The matching figures for `O=C(NCc1cccc(S(=O)(=O)c2cccc(C(F)(F)F)c2)c1)c1ccnc(C(F)(F)F)n1` [Compound 27, 2-(trifluoromethyl)-N-(3-((3-(trifluoromethyl)phenyl)sulfonyl)benzyl)pyrimidine-4-carboxamide]: 310 nM, 3360 nM and 2450 nM.
